This is an account of results in patent US20210371353A1, “FERTILIZER COMPOSITIONS AND PLANTS CONTAINING PROTOCATECHUIC ACID, AND USES THEREOF” (priority 2020, published 2021).

One assay deals with rice. To be noted: had been reported; cited from earlier work.
The subject of assay [1] is lettuce. Description: Size of roots and leaves of harvested lettuce. To be noted: for Size of roots and leaves / plant growth compared with control: approximately eight weeks (two months) after sowing; for Leaves (each) Width: control 3-5 cm; for Root (as a whole) Width: control 6 cm; for Root (as a whole) Length: control 8 cm; for Leaves (each) Length: control 20-21 cm. Format: in vivo. The source says: A commercial plant box as shown in FIG. 1A was used for the experiment. The bottom one half was filled with sandbox sand, and the top layer was filled with six inches of non-fertilized soil. The level of the soil was four inches below the top of the container. The plant box was partitioned into three sections with physical barriers in between, from the top of the soil to the bottom of the plant box, as illustrated in FIG. 1B.
A single straight line of 0.25-inch-deep trough was formed in each section. Then, lettuce seeds were placed in the trough according to the methods laid out in Table 1 below. Each section was watered daily with tap water.
Approximately eight weeks after sowing, a portion of each group was harvested, and size of the roots and leaves of the harvested lettuce was measured, as summarized in Table 3 below.

A further assay deals with red azaleas. Description: Flowering of red azaleas. Format: in vivo, azalea (red bird variety). To be noted: small amount of PCA crystals around the stem. The source says:
In one of the two azalea plants (red bird variety), small amount of PCA crystals were placed around the stem, and both were watered daily. The plant treated with PCA bloomed in three weeks, and the other plant bloomed in seven weeks.

The next assay has as its system pink azaleas. Description: Flowering and sprouting of pink azaleas. The format is in vivo, pink azalea. The source says: In the experimental plant, small amount of PCA crystals were placed around the stem, and both plants were watered daily.
Assay [2] relates to lettuce. Description: Browning of harvested and cut lettuce. The format is in vivo. The source says:
Browning of the lettuce harvested at approximately eight weeks after sowing were examined for experimental groups 2 and 3. The cut end of the stalk and the cut area on the leaves were observed. First browning appeared on the cut end six days after harvesting and cutting.

Assay [3] deals with lettuce. The assay is described as follows: Remaining lettuce observed until final harvest (wilting, size, pest holes). The format is in vivo. As to conditions: approximately 14 weeks after sowing.
The mark [4] stands for this setting: approximately eight weeks after sowing.

The structures appear in SMILES notation. Entries after “also recorded” stand apart in the source; their conditions may differ.

For `O=C(O)c1ccc(O)c(O)c1` [PCA, protocatechuic acid], the “Effect on growth of some plant species, e.g., rice” value in the assay with rice is given as “no effect on growth”. The “Size of roots and leaves / plant growth compared with control” value in the assay with lettuce [1] was “enhanced plant growth; larger root system and larger leaves than the control”.

As for `O=C(O)c1ccc(O)c(O)c1` [PCA crystals, protocatechuic acid], the “Speed of flowering compared with untreated plant” value with red azaleas is “more than twice as fast”. Further, in the assay with red azaleas (watered daily, untreated plant seven weeks), the Time to bloom result was “three”. The “Blooming compared with control plant” value in the assay on pink azaleas (approximately five weeks after placing PCA crystals around the stem) is “started to bloom before the control plant did, and had more flowers blooming than the control plant”. Also, the “Flowering, buds and shoots compared with control plant” value with pink azaleas (approximately seven weeks after placing PCA crystals, control wilted) is “continued to flower and had more buds and taller shoot of stems than the control”. Moreover, the “Buds compared with control plant” value in the assay with pink azaleas (approximately six weeks after placing PCA crystals) is reported as “had many more buds on the top yet to flower”. In the assay with pink azaleas (summary), the “Overall flowering, sprouting and budding compared with control” value is “flowered sooner, added sprouts sooner, and had budding that lasted longer than the control”. For the same compound, in the assay with lettuce [2] (lettuce harvested approximately eight weeks after sowing), the “Time to first browning on the cut end after harvesting and cutting” value was “six”. Besides, the “Browning in the cut areas of the leaves” value in the assay with lettuce [2] (six days after cutting) was “no browning was observed; also recorded: no browning was seen where leaves were cut”. For the same compound, in the assay on lettuce [2] (six days after harvesting and cutting), the “Browning on cut end of the stalk compared with control” value was “not as thick as in the control group; also recorded: did not show thick brown covering on the stump”. The “Size of roots and leaves / plant growth compared with control” value in the assay on lettuce [1] is “bigger roots and leaves than the control”. For the same compound, in the assay on lettuce [1] (setting [4]), the “Leaves (each) Width” value is given as 4-6 cm, the “Root (as a whole) Width” value is given as 9 cm, the “Root (as a whole) Length” value is on record as 10 cm and the “Leaves (each) Length” value is recorded as 24 cm. Moreover, the “Size of leaves and roots at final harvest, group 3 versus group 2” value with lettuce [3] is “larger and wider leaves and larger roots than experimental group 2”.

In the case of `O=C(O)c1ccc(O)c(O)c1` [PCA coating, protocatechuic acid], in the assay with lettuce [1] (setting [4]), the “Shape of root and leaves compared with other groups” value was “the root was relatively narrower, and the leaves were relatively wider and shorter; also recorded: a different shaped single root”; the “Leaves (each) Width” value is on record as 4-7 cm; the “Root (as a whole) Width” value is 3-5 cm; the “Root (as a whole) Length” value is reported as 8-11 cm. Moreover, in the assay on lettuce [1] (setting [4]), the “Leaves (each) Length” value is 17-18 cm.
